This note sets out measurements from ChEMBL document CHEMBL1221276, “Structure-based design, synthesis, and biological evaluation of lipophilic-tailed monocationic inhibitors of neuronal nitric oxide synthase” (Bioorg Med Chem, 2010).

One experiment addresses Nitric oxide synthase 1 (Rattus norvegicus, UniProt P29476). The experiment is described as follows: Inhibition of rat recombinant nNOS expressed in Escherichia coli by hemoglobin capture assay.
The target in the next experiment is T1, Nitric oxide synthase 3 (Bos taurus, UniProt P29473).
T1 sequence (P29473 whole entry): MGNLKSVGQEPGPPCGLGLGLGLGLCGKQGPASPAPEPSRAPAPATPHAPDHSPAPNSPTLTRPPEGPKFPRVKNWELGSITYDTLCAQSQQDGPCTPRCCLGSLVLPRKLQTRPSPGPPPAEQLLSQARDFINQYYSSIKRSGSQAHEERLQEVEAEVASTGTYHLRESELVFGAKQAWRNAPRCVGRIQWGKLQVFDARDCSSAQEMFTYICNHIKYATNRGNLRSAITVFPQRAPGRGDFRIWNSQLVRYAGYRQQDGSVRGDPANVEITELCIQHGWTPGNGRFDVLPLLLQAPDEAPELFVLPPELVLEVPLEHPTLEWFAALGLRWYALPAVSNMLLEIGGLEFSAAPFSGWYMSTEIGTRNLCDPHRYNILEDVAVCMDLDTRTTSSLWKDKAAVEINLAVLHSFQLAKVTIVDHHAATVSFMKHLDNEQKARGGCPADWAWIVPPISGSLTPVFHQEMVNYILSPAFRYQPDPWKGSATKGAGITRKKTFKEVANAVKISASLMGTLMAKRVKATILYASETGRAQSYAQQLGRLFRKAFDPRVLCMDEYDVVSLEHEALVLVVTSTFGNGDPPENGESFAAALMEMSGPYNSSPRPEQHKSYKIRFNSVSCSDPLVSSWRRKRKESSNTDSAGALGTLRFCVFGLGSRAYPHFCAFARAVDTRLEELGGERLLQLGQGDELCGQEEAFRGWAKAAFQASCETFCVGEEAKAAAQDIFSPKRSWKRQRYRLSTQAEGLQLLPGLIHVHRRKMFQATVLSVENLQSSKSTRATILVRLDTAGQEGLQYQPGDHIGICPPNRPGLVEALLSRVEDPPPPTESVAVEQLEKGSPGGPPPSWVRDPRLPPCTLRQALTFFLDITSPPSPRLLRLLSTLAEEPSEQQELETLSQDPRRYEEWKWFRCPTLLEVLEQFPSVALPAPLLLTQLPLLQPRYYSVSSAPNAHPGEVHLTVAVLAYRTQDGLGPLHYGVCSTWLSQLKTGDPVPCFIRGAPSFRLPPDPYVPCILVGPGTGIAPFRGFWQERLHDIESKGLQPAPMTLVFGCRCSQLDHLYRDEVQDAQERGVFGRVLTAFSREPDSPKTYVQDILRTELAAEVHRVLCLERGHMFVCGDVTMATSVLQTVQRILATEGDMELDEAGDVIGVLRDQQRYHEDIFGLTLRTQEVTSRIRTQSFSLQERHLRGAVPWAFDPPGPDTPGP
The experiment is described as follows: Inhibition of bovine recombinant eNOS expressed in Escherichia coli by hemoglobin capture assay.

Experiment [1] addresses T2, Nitric oxide synthase, inducible (Mus musculus, UniProt P29477).
T2 sequence (P29477 whole entry): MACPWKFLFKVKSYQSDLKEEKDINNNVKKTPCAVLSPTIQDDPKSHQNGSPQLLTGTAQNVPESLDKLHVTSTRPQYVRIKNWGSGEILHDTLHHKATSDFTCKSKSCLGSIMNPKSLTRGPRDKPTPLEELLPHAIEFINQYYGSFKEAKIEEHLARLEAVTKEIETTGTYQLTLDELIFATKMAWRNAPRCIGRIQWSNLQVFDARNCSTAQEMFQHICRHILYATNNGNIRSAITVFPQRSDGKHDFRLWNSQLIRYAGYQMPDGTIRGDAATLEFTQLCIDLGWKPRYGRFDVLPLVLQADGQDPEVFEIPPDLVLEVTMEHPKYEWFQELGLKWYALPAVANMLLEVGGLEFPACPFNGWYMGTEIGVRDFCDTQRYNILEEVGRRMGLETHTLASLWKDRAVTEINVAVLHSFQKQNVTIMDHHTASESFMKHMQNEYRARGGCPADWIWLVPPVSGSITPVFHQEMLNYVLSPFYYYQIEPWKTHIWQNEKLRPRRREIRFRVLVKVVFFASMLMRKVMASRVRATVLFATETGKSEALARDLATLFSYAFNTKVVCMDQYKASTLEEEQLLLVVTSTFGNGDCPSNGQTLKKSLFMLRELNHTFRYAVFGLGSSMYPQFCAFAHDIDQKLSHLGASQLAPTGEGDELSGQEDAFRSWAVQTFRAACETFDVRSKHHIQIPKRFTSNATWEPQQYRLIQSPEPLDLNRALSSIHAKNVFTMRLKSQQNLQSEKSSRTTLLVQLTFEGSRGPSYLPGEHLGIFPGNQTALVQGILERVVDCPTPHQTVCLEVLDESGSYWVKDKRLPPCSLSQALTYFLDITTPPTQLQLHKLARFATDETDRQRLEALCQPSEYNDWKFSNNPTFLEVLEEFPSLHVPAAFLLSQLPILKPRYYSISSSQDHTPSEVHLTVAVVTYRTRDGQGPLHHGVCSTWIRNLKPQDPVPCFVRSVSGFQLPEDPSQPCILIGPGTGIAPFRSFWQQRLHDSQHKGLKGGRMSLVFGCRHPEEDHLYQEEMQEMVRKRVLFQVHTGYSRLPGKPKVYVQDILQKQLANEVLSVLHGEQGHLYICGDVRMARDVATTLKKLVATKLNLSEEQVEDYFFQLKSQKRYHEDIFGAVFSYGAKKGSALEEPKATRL
The experiment is described as follows: Inhibition of mouse recombinant iNOS expressed in Escherichia coli by hemoglobin capture assay.

SMILES strings stand for the structures.

Nitric oxide synthase 1, sequence (P29476 whole entry): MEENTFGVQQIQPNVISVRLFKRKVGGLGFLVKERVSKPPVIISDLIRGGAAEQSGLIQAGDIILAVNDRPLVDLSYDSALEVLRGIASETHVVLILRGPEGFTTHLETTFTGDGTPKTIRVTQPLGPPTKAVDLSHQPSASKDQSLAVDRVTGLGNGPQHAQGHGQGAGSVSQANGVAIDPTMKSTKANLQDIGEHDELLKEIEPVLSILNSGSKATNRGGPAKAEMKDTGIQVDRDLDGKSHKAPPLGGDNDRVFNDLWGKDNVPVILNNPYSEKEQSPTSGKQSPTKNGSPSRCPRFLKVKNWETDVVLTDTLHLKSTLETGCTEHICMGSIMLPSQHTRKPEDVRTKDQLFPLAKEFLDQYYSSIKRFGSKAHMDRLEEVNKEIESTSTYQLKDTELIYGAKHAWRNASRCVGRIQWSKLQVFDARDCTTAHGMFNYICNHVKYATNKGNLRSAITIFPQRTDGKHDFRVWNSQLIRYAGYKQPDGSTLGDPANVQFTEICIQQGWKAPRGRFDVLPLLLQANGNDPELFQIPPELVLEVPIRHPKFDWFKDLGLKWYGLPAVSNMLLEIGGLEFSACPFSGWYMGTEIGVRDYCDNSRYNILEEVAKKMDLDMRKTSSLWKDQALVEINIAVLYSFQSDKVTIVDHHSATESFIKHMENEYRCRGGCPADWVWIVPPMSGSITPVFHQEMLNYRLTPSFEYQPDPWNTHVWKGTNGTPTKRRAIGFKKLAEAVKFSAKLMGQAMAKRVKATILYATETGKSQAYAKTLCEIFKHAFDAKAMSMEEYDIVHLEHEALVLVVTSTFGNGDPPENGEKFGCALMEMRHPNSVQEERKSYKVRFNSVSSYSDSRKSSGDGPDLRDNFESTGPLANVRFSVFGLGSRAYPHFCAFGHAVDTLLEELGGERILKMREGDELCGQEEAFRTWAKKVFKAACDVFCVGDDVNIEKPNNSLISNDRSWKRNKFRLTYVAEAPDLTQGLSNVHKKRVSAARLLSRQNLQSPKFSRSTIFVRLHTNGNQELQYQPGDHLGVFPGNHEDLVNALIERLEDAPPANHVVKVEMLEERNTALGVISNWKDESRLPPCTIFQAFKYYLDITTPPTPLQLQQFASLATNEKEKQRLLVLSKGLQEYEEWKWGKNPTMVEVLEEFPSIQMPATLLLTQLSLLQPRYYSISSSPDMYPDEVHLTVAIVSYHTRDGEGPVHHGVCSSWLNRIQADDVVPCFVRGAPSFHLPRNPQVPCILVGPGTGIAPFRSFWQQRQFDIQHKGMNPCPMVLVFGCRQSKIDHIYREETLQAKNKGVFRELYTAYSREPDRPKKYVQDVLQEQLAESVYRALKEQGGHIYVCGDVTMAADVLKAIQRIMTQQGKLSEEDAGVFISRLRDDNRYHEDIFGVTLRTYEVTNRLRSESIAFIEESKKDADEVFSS

In the case of `Cc1cc(N)nc(C[C@@H]2CNC[C@@H]2OCc2ccc(-c3cccc(F)c3)cc2)c1` (racemic), the Ki on Nitric oxide synthase 1 amounted to 0.75 µM; on Nitric oxide synthase 3 it was 13.3 µM; in experiment [1], 39.5 µM.
As to `Cc1cc(N)nc(C[C@@H]2CNC[C@@H]2OCc2ccc(-c3cccc(Cl)c3)cc2)c1` (racemic), the Ki at Nitric oxide synthase 1 is 1.2 µM; at Nitric oxide synthase 3, 26 µM; in experiment [1], 55.6 µM.
As to `Cc1cc(N)nc(C[C@@H]2CNC[C@@H]2OCc2ccc(-c3ccc(F)c(Cl)c3)cc2)c1` (racemic), the Ki at Nitric oxide synthase 1 was 0.76 µM.
As to `Nc1cccc(C[C@@H]2CNC[C@@H]2Oc2cccc(Oc3ccccc3)c2)n1` (racemic), on Nitric oxide synthase 1, the Ki is 3 µM.
For the compound `Cc1cc(N)nc(C[C@@H]2CNC[C@@H]2OCc2ccc(-c3ccc(F)c(C)c3)cc2)c1` (racemic), the inhibition constant (Ki) amounted to 0.62 µM on Nitric oxide synthase 1 and 22.1 µM in experiment [1].
For `Cc1cc(N)nc(C[C@@H]2CNC[C@@H]2OCc2ccc(-c3cccc(C(F)(F)F)c3)cc2)c1` (racemic), the Ki at Nitric oxide synthase 3 came to 13.6 µM; in experiment [1], 37.3 µM.

Broadly, the Ki is a dissociation constant, usually derived from enzyme kinetics or from competition with a known ligand.
